Assay results from article PMC11374673, “Discovery of isoquinoline sulfonamides as allosteric gyrase inhibitors with activity against fluoroquinolone-resistant bacteria” (Nature Chemistry, 2024).
In brackets after ≈: the same amount, converted by molar mass. Several values for one entry are separate records, joined by “and”; a condition that tells them apart may be missing. Equal entries are not always repeated. Where two headings read alike, the source gives them in different places. Values belong to the molecule of their own block, whether it stands above or below them.

Tests used:
[1] = test system: 60-resistant (60-r) isolates of E. coli W3110; experiment: microbe, parasite or virus in culture; format: cell-based, Escherichia coli
Method: (§1) MIC was determined by broth microdilution. Single-colony cultures were grown to exponential phase (OD600 of 0.5) aerobically at 37 °C. In case of strains from the Keio collection, 50 µg ml^−1 kanamycin was supplemented to the media to ascertain a homogeneous population. The bacterial suspensions were diluted 100-fold in CAMHB and 50 µl was added to a twofold serial dilution series of test compounds (50 µl per well) in polypropylene 96-well microtitre plates to reach a volume of 100 µl. The plates were sealed with breathable membranes and incubated overnight at 37 °C with constant shaking (600 r.p.m.). The MIC was determined as the lowest concentration at which no visible bacterial growth was observed as compared with the inoculum controls from the median of a minimum of triplicates.
The plates were incubated at 37 °C and checked for growth after 24 and 48 h. […] Nine colonies with an increased MIC were selected for further analysis and stored as glycerol stocks.

E. coli W3110 [2] = experiment: MIC by broth microdilution; format: cell-based, Escherichia coli
Method in brief: (§2)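 Exponential-phase cultures (OD600 0.5, 37 °C aerobic), diluted 100-fold in CAMHB, were added to twofold compound dilution series. Keio strains grown with 50 µg ml^−1 kanamycin. Plates incubated overnight at 37 °C, shaking at 600 r.p.m.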

E. coli W3110 [3] = experiment: Time-kill assay
Method: From glycerol stocks, bacterial strains were cultured on blood agar plates by overnight incubation at 37 °C. Subsequently, a single colony was cultured in TSB overnight at 37 °C. The culture was diluted 100-fold in fresh CAMHB and grown until early exponential phase (OD600 of 0.25) followed by 100-fold dilution in media. The culture was split in separate culture tubes containing 2 ml. […] The supernatant was discarded and pellets were washed once with filter-sterilized PBS, then resuspended in an equal volume of fresh buffer and samples were tenfold serially diluted until a 10^5 dilution. Then, 10 µl of the appropriate dilutions were inoculated on LB agar plates in technical duplicates, subsequently allowed to evaporate and incubated at 37 °C for 18 h. The colonies were counted and used to calculate the colony forming unit (c.f.u.) per ml remaining in the original culture by taking the dilution factors into account. The experiment was performed in biological duplicates.

[4] = test system: S. aureus ATCC 29213 / ATCC BAA1717; experiment: MIC by broth microdilution; format: cell-based; settings: Staphylococcus aureus
Method: as §1

A. baumannii ATCC BAA747 = experiment: MIC by broth microdilution; format: cell-based; settings: Acinetobacter baumannii, ATCCBAA747; read-out: MIC A. baumannii ATCC BAA747
Method: as §1

P. aeruginosa ATCC 27853 = experiment: MIC by broth microdilution; format: cell-based; settings: Pseudomonas aeruginosa, ATCC27853; read-out: MIC P. aeruginosa ATCC 27853
Method: as §1

HEK293T = experiment: Cytotoxicity assay (MTT); format: cell-based, human; settings: Homo sapiens, HEK-293T, 24 h, MTT
Method in brief: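 HEK293T cells, maintained at 37 °C and 7% CO2 in Dulbecco’s modified Eagle medium with GlutaMax, antibiotics and serum, were plated in clear 96-well plates in 100 µl medium containing 1% fetal bovine serum and left 24 h to attach. After 24 h compound exposure, MTT (0.40 mg ml^−1) was added for 2 h. Formazan was dissolved in 100 µl DMSO and absorbance measured at 570 nm. Background-corrected IC50 values came from variable-slope non-linear fits.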

HepG2 = experiment: Cytotoxicity assay (MTT); format: cell-based, human; settings: Homo sapiens, HepG2, 24 h, MTT, 24 h
E. coli W3110 [5] = experiment: H-89 derivatives rescreen, 50 µM; format: cell-based; settings: Escherichia coli, H-89 derivative rescreen, highest 50 µM
Method: From glycerol stocks, E. coli W3110 was cultured on blood agar plates (PB5039A, Thermo Scientific) by overnight (18 ± 2 h) aerobic incubation at 37 °C. A single colony was transferred to tryptic soy broth (TSB, 02-200-500, Scharlab). The cultures were grown to exponential phase (OD600 of 0.5) at 37 °C. The bacterial suspensions were diluted 200-fold in cation-adjusted Mueller–Hinton broth (CAMHB) and 99 µl was added to a library of test compounds (1 µl 10 mM DMSO stock, per well in technical duplicates) in polypropylene 96-well microtitre plates to reach a volume of 100 µl and a final concentration of 100 µM for each test compound and a maximum of 1% DMSO. […] Screening hits were selected from the wells where no visible bacterial growth was observed, as compared with the inoculum controls containing 1% DMSO. The follow-up screen of H-89 derivatives was performed under similar conditions with a final concentration of 50 µM.

E. coli ATCC 25922 = experiment: MIC by broth microdilution; format: cell-based; settings: Escherichia coli, ATCC25922; read-out: MIC E. coli ATCC 25922
Method: as §1, with “r.p.m.).” for “r.p.m.). The MIC was determined as the lowest concentration at which no visible bacterial growth was observed as compared with the inoculum controls from the median of a minimum of triplicates.”

[6] = test system: E. coli BW25113 and single-gene knockouts; experiment: MIC on E. coli strains of the Keio collection; format: cell-based, Escherichia coli; settings: Escherichia coli, BW25113, read-out: MIC E. coli BW25113, parent strain
Method: as §1

K. pneumoniae ATCC 29665 = experiment: MIC by broth microdilution; format: cell-based, Klebsiella pneumoniae; settings: Klebsiella pneumoniae, ATCC29665, read-out: MIC K. pneumoniae ATCC 29665
Method in brief: as §2

[7] = WT, broth microdilution, read-out: MIC E. coli W3110
[8] = Escherichia coli, E. coli W3110 60-r1
[9] = Escherichia coli, E. coli W3110 60-r3
[10] = Escherichia coli, E. coli W3110 60-r6
[11] = Escherichia coli, W3110, read-out: MIC E. coli W3110

Molecule: Colistin
MIC ([1]; E. coli W3110 60-r1): 0.375 µM and 1 µg/mL
MIC ([1]; E. coli W3110 60-r3): 0.375 µM and 1 µg/mL
MIC ([1]; E. coli W3110 60-r6): 0.19 µM and 0.5 µg/mL
MIC (E. coli W3110 [2]; E. coli W3110): 0.5 mg/L
MIC (E. coli W3110 [2]; [7]): 0.19 µM

Molecule: CC(C)(O/N=C(\C(=O)N[C@@H]1C(=O)N2C(C(=O)[O-])=C(C[n+]3ccccc3)CS[C@H]12)c1csc(N)n1)C(=O)O [Ceftazidime]
MIC [1, 8]: 0.375 µM and 0.2 µg/mL
MIC [1, 9]: 0.75 µM and 0.4 µg/mL
MIC [1, 10]: 0.75 µM and 0.4 µg/mL
MIC (E. coli W3110 [2]; Escherichia coli, W3110): 0.4 mg/L
MIC (E. coli W3110 [2]; [11]): 0.75 µM

Molecule: O=C(N[C@H](CO)[C@H](O)c1ccc([N+](=O)[O-])cc1)C(Cl)Cl [Chloramphenicol]
MIC [1, 8]: 12.4 µM and 4 µg/mL
MIC [1, 9]: 12.4 µM and 4 µg/mL
MIC [1, 10]: 12.4 µM and 4 µg/mL
MIC (E. coli W3110 [2]; Escherichia coli, W3110): 4 mg/L
MIC (E. coli W3110 [2]; [11]): 12.4 µM

Molecule: COc1cc(Cc2cnc(N)nc2N)cc(OC)c1OC [TMP, trimethoprim]
MIC [1, 8]: 0.375 µM and 0.16 µg/mL
MIC [1, 9]: 0.18 µM and 0.08 µg/mL
MIC [1, 10]: 0.375 µM and 0.16 µg/mL
time kill kinetics, bacterial count (E. coli W3110 [3]; 4xMIC, 0.5 h, n = 1 and n = 2): 5.161 and 5.204
time kill kinetics, bacterial count (E. coli W3110 [3]; 4xMIC, 1 h): 5.041 and 5.342
time kill kinetics, bacterial count (E. coli W3110 [3]; 4xMIC, 2 h): 5.322 and 4.954
time kill kinetics, bacterial count (E. coli W3110 [3]; 4xMIC, 4 h): 4.255 and 4.204
time kill kinetics, bacterial count (E. coli W3110 [3]; 4xMIC, 8 h): 2.845 and 2.602
time kill kinetics, bacterial count (E. coli W3110 [3]; 4xMIC, 24 h): 2
time kill kinetics, bacterial count (E. coli W3110 [3]; 8xMIC, 0.5 h): 6.217 and 6.23
time kill kinetics, bacterial count (E. coli W3110 [3]; 8xMIC, 1 h): 4.978 and 5.097
time kill kinetics, bacterial count (E. coli W3110 [3]; 8xMIC, 2 h): 5.176 and 4.929
time kill kinetics, bacterial count (E. coli W3110 [3]; 8xMIC, 4 h): 3.544 and 3.423
time kill kinetics, bacterial count (E. coli W3110 [3]; 8xMIC, 8 h): 2.699
time kill kinetics, bacterial count (E. coli W3110 [3]; 8xMIC, 24 h): 2.301 and 2
MIC (E. coli W3110 [2]; Escherichia coli, W3110): 0.16 mg/L
MIC (E. coli W3110 [2]; [11]): 0.375 µM

Molecule: O=S(=O)(NCCNCc1ccc(-c2cccnc2)cc1)c1cccc2cnccc12 [Compound 1]
MIC ([4]; read-out: MIC S. aureus ATCC 29213): > 50 µM
MIC ([4]; read-out: MIC S. aureus ATCC BAA1717): > 50 µM
MIC (A. baumannii ATCC BAA747): > 50 µM
MIC (P. aeruginosa ATCC 27853): > 50 µM
MIC [1, 8]: > 100 µM
MIC [1, 9]: 100 µM (≈ 41.9 µg/mL)
MIC [1, 10]: > 100 µM
IC50 (HEK293T): > 50 µM
IC50 (HepG2): > 50 µM
MIC (E. coli W3110 [5]): 6.25 µM (≈ 2.62 µg/mL)
MIC (E. coli W3110 [2]; Escherichia coli, W3110, WT, broth microdilution, read-out: MIC E. coli W3110): 6.25 µM
MIC (E. coli W3110 [2]; Escherichia coli, W3110, follow-up of the 12 library hits, read-out: MIC E. coli): 6.25 µM
MIC (E. coli W3110 [2]; Escherichia coli, W3110, read-out: MIC E. coli): 2.6 mg/L
MIC (E. coli ATCC 25922): 25 µM (≈ 10.5 µg/mL)
MIC [6]: 12.5 µM (≈ 5.23 µg/mL)
MIC (K. pneumoniae ATCC 29665): 12.5 µM (≈ 5.23 µg/mL)

Molecule: C[C@@H](O)[C@H]1C(=O)N2C(C(=O)O)=C(SCCN=CN)C[C@H]12 [Imipenem]
MIC [1, 8]: 0.75 µM and 0.2 µg/mL
MIC [1, 9]: 0.375 µM and 0.1 µg/mL
MIC [1, 10]: 0.375 µM and 0.1 µg/mL
MIC (E. coli W3110 [2]; Escherichia coli, W3110): 0.1 mg/L
MIC (E. coli W3110 [2]; [11]): 0.375 µM

Molecule: Neomycin
MIC ([1]; E. coli W3110 60-r1): 0.75 µM and 0.5 µg/mL
MIC ([1]; E. coli W3110 60-r3): 1.5 µM and 1 µg/mL
MIC ([1]; E. coli W3110 60-r6): 0.75 µM and 0.5 µg/mL
MIC (E. coli W3110 [2]; E. coli W3110): 1 mg/L
MIC (E. coli W3110 [2]; [7]): 1.5 µM

Molecule: C[C@@H](O)[C@H]1C(=O)N2C(C(=O)O)=C(S[C@@H]3CN[C@H](C(=O)N(C)C)C3)[C@H](C)[C@H]12 [Meropenem]
MIC [1, 8]: 0.09 µM and 0.04 µg/mL
MIC [1, 9]: 0.05 µM and 0.02 µg/mL
MIC [1, 10]: 0.05 µM and 0.02 µg/mL
MIC (E. coli W3110 [2]; Escherichia coli, W3110): 0.02 mg/L
MIC (E. coli W3110 [2]; [11]): 0.05 µM

MIC (E. coli W3110 [5]): > 50 µM
Molecule: Cc1ccc(S(=O)(=O)NCCNCCCc2ccc(-c3cnc4[nH]ccc4c3)cc2)cc1 [Compound 18]
